# Measurements from patent publication US5556859A, “N-(4-pyrimidinyl)amide pesticides” (DowElanco, priority 1994, dated 1996).
# Assays:
# [1] = system: tobacco budworm (Heliothis virescens); assay: Activity against tobacco budworm (TBW); type: in vivo; conditions: 144 h, read-out: percent mortality, TBW
# Outline: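 Eighteen to twenty Heliothis virescens eggs were placed on half-strength artificial diet and sprayed one hour later with compound at 400 and 50 ppm, in aqueous Tween 20 with acetone/EtOH. Cups were held 6 days at room temperature. Ratings were based on live and dead larval counts and live larval size.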
# [2] = system: aster leafhopper (Macrosteles fascifrons); assay: whole plant or invertebrate; conditions: 24 h, read-out: percent mortality, ALH
# [3] = system: beet armyworm (Spodoptera exiqua); assay: whole plant or invertebrate; conditions: 144 h, read-out: percent mortality, BAW
# [4] = system: cotton aphid (Aphis gossypii); assay: whole plant or invertebrate; conditions: 72 h, read-out: percent mortality, CA
# [5] = system: peanut root knot nematode (Meloidogyne arenaria); assay: whole plant or invertebrate; conditions: in Arachis hypogaea, read-out: percent mortality, RKN
# [6] = system: Southern corn rootworm (Diabrotica undecimpuctata howardi Barber); assay: whole plant or invertebrate; conditions: in Zea mays, soil, read-out: percent mortality, SCRW
# [7] = system: two spotted spider mite (Tetranychus urticae); assay: whole plant or invertebrate; conditions: 72 h, read-out: percent mortality, TSSM
# [8] = system: German cockroach (Blattella germanicus); assay: whole plant or invertebrate; conditions: 240 h, read-out: percent mortality, GECR
Compound,mortality at 400 ppm [1],mortality at 400 ppm [2],mortality at 400 ppm [3],mortality at 400 ppm [4],mortality at 400 ppm [5],mortality at 24 µg/g [6],mortality at 400 ppm [7],mortality at 400 ppm [8]
"Cc1nccc(NC(=O)Cc2ccc(Oc3ccc(C(F)(F)F)cc3)cc2)n1 [Compound 63, 4-(4-trifluoromethylphenoxy)phenyl-N-(2-methyl-4-pyrimidinyl)acetamide]",100%,60%,100%,100%,0%,0%,100%,100%
"O=C(Cc1ccc(Oc2ccc(C(F)(F)F)cc2)cc1)Nc1ccnc(C2CC2)n1 [Compound 67, 4-(4-trifluoromethylphenoxy)phenyl-N-(2-cyclopropyl-4-pyrimidinyl)acetamide]",100%,60%,100%,100%,100%,100%,100%,100%
"O=C(Cc1ccc(Oc2ccc(C(F)(F)F)cc2)cc1)Nc1ccncn1 [Compound 68, 4-(4-trifluoromethylphenoxy)phenyl-N-(4-pyrimidinyl)acetamide]",100%,0%,0%,0%,100%,0%,0%,0%
"COCc1nccc(NC(=O)Cc2ccc(Oc3ccc(C(F)(F)F)cc3)cc2)n1 [Compound 70, 4-(4-trifluoromethylphenoxy)phenyl-N-(2-(methoxymethyl)-4-pyrimidinyl)acetamide]",60%,0%,100%,90%,0%,0%,80%,100%
"O=C(Cc1ccc(Oc2cccc(C(F)(F)F)c2)cc1)Nc1ccnc(C2CCC2)n1 [Compound 71, 4-(3-trifluoromethylphenoxy)phenyl-N-(2-cyclobutyl-4-pyrimidinyl)acetamide]",60%,0%,100%,0%,0%,0%,0%,100%
"CCc1nccc(NC(=O)C(=CN(C)C)c2ccc(Oc3ccc(C(F)(F)F)cc3)cc2)n1 [Compound 73, 3-(dimethylamino)-N-(2-ethyl-4-pyrimidinyl)-1-(4-(4-trifluoromethylphenoxy)phenyl)-2-propenamide]",100%,100%,100%,100%,100%,100%,100%,100%
"CCc1nccc(NC(=O)C(=CN(C)C)c2ccc(Oc3ccc(Cl)cc3)cc2)n1 [Compound 76, 3-(dimethylamino)-N-(2-ethyl-4-pyrimidinyl)-1-(4-(4-chlorophenoxy)phenyl)-2-propenamide]",100%,100%,100%,100%,100%,100%,80%,80%
"CCc1nccc(NC(=O)C(=CN(C)C)c2ccc(Oc3ccc(C#N)cc3)cc2)n1 [Compound 78, 3-(dimethylamino)-N-(2-ethyl-4-pyrimidinyl)-1-(4-(4-cyanophenoxy)phenyl)-2-propenamide]",100%,60%,100%,80%,100%,0%,80%,80%
"CCNC=C(C(=O)Nc1ccnc(CC)n1)c1ccc(Oc2ccc(C#N)cc2)cc1 [Compound 79, 3-(ethylamino)-N-(2-ethyl-4-pyrimidinyl)-1-(4-(4-cyanophenoxy)phenyl)-2-propenamide]",100%,80%,100%,100%,100%,100%,100%,100%
"CCc1nccc(NC(=O)C(=CNCC(C)C)c2ccc(Oc3ccc(C#N)cc3)cc2)n1 [Compound 80, 3-(2-methylpropylamino)-N-(2-ethyl-4-pyrimidinyl)-2-(4-(4-cyanophenoxy)phenyl)-2-propenamide]",100%,60%,100%,100%,100%,100%,100%,100%
